{"source": "PubChem BioAssay AID270", "about": "(DTP/NCI, 2004)", "test_system": "BDF1 mice, s.c. Lewis lung carcinoma, T/C %", "experiment": "NCI In Vivo Anticancer Drug Screen. Data for tumor model Lewis Lung Carcinoma (subcutaneous) in B6D2F1 (BDF1) mice", "how_it_was_run": "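First, mice carry a transplantable tumor. Next, groups receive either compound or vehicle. Finally, survival or tumor dimensions in the dosed animals are divided by the corresponding control figure.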", "note": "“And” between values parts separate entries of the source, which are not always exact repeats. Equal entries are not always repeated. Records with an inconclusive call do not appear.", "data": [{"smiles": "O=P(c1ccccc1)(c1ccccc1)P(=O)(c1ccccc1)c1ccccc1", "values": [{"measurement": "T/C", "setting": "endpoint: mean tumor weight, dose: 33.0 mg/kg/injection, schedule: Q01DX011 (ip), vehicle: other, higher = larger tumour", "result": "117 % of control"}, {"measurement": "T/C", "setting": "endpoint: mean tumor weight, dose: 66.0 mg/kg/injection, schedule: Q01DX011 (ip), vehicle: other, higher = larger tumour", "result": "79 % of control"}, {"measurement": "T/C", "setting": "endpoint: mean tumor weight, dose: 100.0 mg/kg/injection, schedule: Q01DX011 (ip), vehicle: other, higher = larger tumour", "result": "61 % of control"}, {"measurement": "T/C", "setting": "endpoint: mean tumor weight, dose: 150.0 mg/kg/injection, schedule: Q01DX011 (ip), vehicle: other, higher = larger tumour", "result": "94 % of control"}, {"measurement": "T/C", "setting": "endpoint: mean tumor weight, dose: 200.0 mg/kg/injection, schedule: Q01DX011 (ip), vehicle: methylcellulose (MC), higher = larger tumour", "result": "87 % of control"}, {"measurement": "T/C", "setting": "endpoint: mean tumor weight, dose: 300.0 mg/kg/injection, schedule: Q01DX011 (ip), vehicle: methylcellulose (MC), higher = larger tumour", "result": "38 % of control"}]}, {"smiles": "O=S(=O)(O)O.[NH-]CC1(C[NH-])CCCCC1.[Pt+2]", "values": [{"measurement": "T/C", "setting": "endpoint: median survival time, dose: 6.0 mg/kg/injection, schedule: Q04DX003 (ip), vehicle: other, higher = longer survival", "result": "100 % of control"}]}, {"smiles": "Cc1cc(O)c2cc3c(O)c(O)ccc3cc2c1", "values": [{"measurement": "T/C", "setting": "endpoint: mean tumor weight, dose: 0.25 mg/kg/injection, schedule: Q01DX011 (ip), vehicle: saline, higher = larger tumour", "result": "86 % of control"}, {"measurement": "T/C", "setting": "endpoint: mean tumor weight, dose: 0.5 mg/kg/injection, schedule: Q01DX011 (ip), vehicle: saline, higher = larger tumour", "result": "116 % of control"}, {"measurement": "T/C", "setting": "endpoint: mean tumor weight, dose: 1.0 mg/kg/injection, schedule: Q01DX011 (ip), vehicle: saline, higher = larger tumour", "result": "62 % of control"}, {"measurement": "T/C", "setting": "endpoint: mean tumor weight, dose: 2.0 mg/kg/injection, schedule: Q01DX011 (ip), vehicle: saline, higher = larger tumour", "result": "31 % of control and 52 % of control"}, {"measurement": "T/C", "setting": "endpoint: mean tumor weight, dose: 4.0 mg/kg/injection, schedule: Q01DX011 (ip), vehicle: saline, higher = larger tumour", "result": "36 % of control"}]}, {"smiles": "CCNCc1cc(Nc2cc(C)nc(/N=C(\\N)Nc3ccc(Cl)c(Cl)c3)n2)ccc1OC", "values": [{"measurement": "T/C", "setting": "endpoint: median survival time, dose: 0.8 mg/kg/injection, schedule: Q01DX009 (ip), vehicle: Klucel (hydroxypropylcellulose) (HPC), higher = longer survival", "result": "96 % of control"}, {"measurement": "T/C", "setting": "endpoint: median survival time, dose: 1.56 mg/kg/injection, schedule: Q01DX009 (ip), vehicle: Klucel (hydroxypropylcellulose) (HPC), higher = longer survival", "result": "100 % of control"}, {"measurement": "T/C", "setting": "endpoint: median survival time, dose: 3.12 mg/kg/injection, schedule: Q01DX009 (ip), vehicle: Klucel (hydroxypropylcellulose) (HPC), higher = longer survival", "result": "96 % of control"}]}]}
